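In this assay, cells in 96-well plates receive the compound at five concentrations for 48 hours. Endpoints are linearly interpolated between the surrounding concentrations. GI50 marks 50% less growth. TGI marks complete inhibition of growth.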
Assays:
Test in all cases: growth of human tumour cells (NCI), 48 h
HOP-18 NSCLC = tested on: HOP-18 NSCLC
KM20L2 colon = tested on: KM20L2 colon
LXFL 529 NSCLC = tested on: LXFL 529 NSCLC
RXF-631 renal = tested on: RXF-631 renal
SNB-78 CNS = tested on: SNB-78 CNS
XF 498 CNS = tested on: XF 498 CNS
MDA-MB-231 breast = tested on: MDA-MB-231 breast
MDA-MB-435 = tested on: MDA-MB-435
MDA-N = tested on: MDA-N

## O=c1ccnc2c1ccc1[nH]cccc12
HOP-18 NSCLC
  TGI: > 100 µM
KM20L2 colon
  TGI: > 100 µM
LXFL 529 NSCLC
  TGI: > 100 µM
RXF-631 renal
  TGI: > 100 µM
SNB-78 CNS
  TGI: > 100 µM

## CC(=O)N/C(=C\c1cccc([N+](=O)[O-])c1)c1nc2c3c(ccc2[nH]1)C(=O)c1ccccc1C3=O
KM20L2 colon
  TGI: > 100 µM
LXFL 529 NSCLC
  TGI: > 100 µM
RXF-631 renal
  TGI: > 100 µM
SNB-78 CNS
  TGI: > 100 µM
XF 498 CNS
  TGI: > 100 µM

## CC1(C)CCC[C@@]2(C)C1CC[C@H]1CC(O)C3(C)CCC12C3 (some centres not stated)
KM20L2 colon
  TGI: 33 µM
LXFL 529 NSCLC
  TGI: 31.2 µM
RXF-631 renal
  TGI: 33.5 µM
SNB-78 CNS
  TGI: 37 µM
XF 498 CNS
  TGI: 31.7 µM

## Cn1nc(-c2ccccc2)nc1[N+](=O)[O-]
MDA-MB-231 breast
  TGI: > 10 µM
MDA-MB-435
  TGI: > 10 µM
MDA-N
  TGI: > 10 µM

## CC(=O)Nc1c(C)ccc2c1C(=O)c1ccccc1C2=O
HOP-18 NSCLC
  TGI: > 100 µM
LXFL 529 NSCLC
  TGI: > 100 µM
SNB-78 CNS
  TGI: > 100 µM

## Cc1cccc(Cl)c1NC(=O)/C=C/c1ccccc1
MDA-MB-231 breast
  TGI: > 100 µM
MDA-MB-435
  TGI: > 100 µM
MDA-N
  TGI: > 100 µM

## CC(=O)/C(=C\C1=CCCO1)C(=O)Nc1ccccc1C
HOP-18 NSCLC
  TGI: > 100 µM
LXFL 529 NSCLC
  TGI: > 100 µM
RXF-631 renal
  TGI: > 100 µM
SNB-78 CNS
  TGI: > 100 µM
XF 498 CNS
  TGI: > 100 µM

## Cc1ccc(/C=C/C(=O)c2sc(-c3cccnc3)nc2C)cc1
HOP-18 NSCLC
  TGI: > 100 µM
KM20L2 colon
  TGI: > 100 µM
RXF-631 renal
  TGI: > 100 µM
SNB-78 CNS
  TGI: > 100 µM

## O=C([CH-]C(=O)c1ccccc1)c1ccccc1.O=C([CH-]C(=O)c1ccccc1)c1ccccc1.O=C([CH-]C(=O)c1ccccc1)c1ccccc1.[OH3+].[Y+3]
KM20L2 colon
  GI50: 5.92 µM

## O=C1NC2CCC(C2)C1c1ccccc1 (configuration not stated)
HOP-18 NSCLC
  TGI: > 100 µM
LXFL 529 NSCLC
  TGI: > 100 µM
RXF-631 renal
  TGI: > 100 µM
SNB-78 CNS
  TGI: > 100 µM

## CC[O-].CC[O-].O=C1C(c2ccccc2)=C([O-])c2ccccc21.O=C1C(c2ccccc2)=C([O-])c2ccccc21.[Ti+4]
HOP-18 NSCLC
  GI50: > 100 µM
  TGI: > 100 µM
KM20L2 colon
  GI50: > 100 µM
  TGI: > 100 µM
LXFL 529 NSCLC
  GI50: > 100 µM
  TGI: > 100 µM
SNB-78 CNS
  GI50: > 100 µM
  TGI: > 100 µM

## COc1ccc(C(=O)OC2C=COC(C)C2OC(=O)c2ccc(OC)cc2)cc1 (configuration not stated)
HOP-18 NSCLC
  TGI: > 61.1 µM
KM20L2 colon
  TGI: > 77.1 µM
LXFL 529 NSCLC
  TGI: 28.1 µM
RXF-631 renal
  TGI: 81.3 µM
SNB-78 CNS
  TGI: > 100 µM
XF 498 CNS
  TGI: > 61.8 µM

## CC/C(=C(/CC)c1ccc(O)cc1)c1ccc([O-])cc1.CC/C(=C(/CC)c1ccc(O)cc1)c1ccc([O-])cc1.O=C([CH-]C(=O)c1ccccc1)c1ccccc1.O=C([CH-]C(=O)c1ccccc1)c1ccccc1.[Ti+4]
HOP-18 NSCLC
  GI50: 24.4 µM
  TGI: 39.3 µM
KM20L2 colon
  GI50: 19.3 µM
  TGI: 41.3 µM
SNB-78 CNS
  GI50: 27.1 µM
  TGI: > 100 µM

## CCCC(C)C[C@@H](C)CC(C)/C=C(\C)c1oc(=O)c(C)c(O)c1C (some centres not stated) (tested in a mixture with another compound)
KM20L2 colon
  TGI: 25.7 µM
LXFL 529 NSCLC
  TGI: 25.9 µM
SNB-78 CNS
  TGI: 45.9 µM

## O=C(Nc1ccc(F)cc1)C(=O)C(C1OC(=O)c2ccccc21)[N+](=O)[O-] (configuration not stated)
KM20L2 colon
  TGI: > 100 µM
LXFL 529 NSCLC
  TGI: > 100 µM
SNB-78 CNS
  TGI: > 100 µM
XF 498 CNS
  TGI: > 100 µM

## CCOC(=O)C1=C(Nc2ccc(Cl)cc2Cl)OC/C1=N\NS(=O)(=O)c1ccc(C)cc1
HOP-18 NSCLC
  TGI: > 100 µM
KM20L2 colon
  TGI: > 100 µM
LXFL 529 NSCLC
  TGI: > 100 µM
SNB-78 CNS
  TGI: > 100 µM

## C=CCC(C(=O)O)c1ccccc1 (configuration not stated)
MDA-MB-231 breast
  TGI: > 100 µM
MDA-MB-435
  TGI: > 100 µM
MDA-N
  TGI: > 100 µM

## O=c1[nH]c2c3ccccc3ccc2c2cc3c(cc12)OCO3
HOP-18 NSCLC
  TGI: > 100 µM
KM20L2 colon
  TGI: > 100 µM
LXFL 529 NSCLC
  TGI: > 100 µM
RXF-631 renal
  TGI: > 100 µM
SNB-78 CNS
  TGI: > 100 µM
XF 498 CNS
  TGI: > 100 µM

## Cc1ccc(NC(=O)CC(=O)n2nc(-c3ccccc3)c(N=Nc3ccccc3Cl)c2-c2ccccc2)cc1
HOP-18 NSCLC
  TGI: > 100 µM
KM20L2 colon
  GI50: > 100 µM
  TGI: > 100 µM
LXFL 529 NSCLC
  TGI: > 100 µM
RXF-631 renal
  TGI: > 100 µM
XF 498 CNS
  TGI: > 100 µM

## NC1CCCCC1N.O=S(=O)([O-])CCCN1CCOCC1.O=S(=O)([O-])CCCN1CCOCC1.[Pt+4]
HOP-18 NSCLC
  GI50: 16 µM
  TGI: > 89.2 µM
KM20L2 colon
  GI50: 5.48 µM
  TGI: > 100 µM
LXFL 529 NSCLC
  GI50: 27.4 µM
  TGI: > 100 µM
SNB-78 CNS
  GI50: > 100 µM
  TGI: > 100 µM

## Cc1cccc(C)c1NC(=O)CCc1nnc2s/c(=C\c3ccc(Cl)cc3)c(=O)n12
HOP-18 NSCLC
  TGI: > 100 µM
KM20L2 colon
  TGI: > 100 µM
LXFL 529 NSCLC
  TGI: > 100 µM
SNB-78 CNS
  TGI: > 100 µM
XF 498 CNS
  TGI: > 100 µM

## C[C@]12CC[C@H](OCCC#N)CC1=CC[C@@H]1C2CC[C@]2(C)/C(=N/OCCC#N)CCC12 (some centres not stated)
HOP-18 NSCLC
  TGI: > 100 µM
KM20L2 colon
  TGI: > 100 µM
LXFL 529 NSCLC
  TGI: > 100 µM
SNB-78 CNS
  TGI: > 90 µM
XF 498 CNS
  TGI: 48.9 µM

## CN(C)CC/C(=N\Nc1ccccc1)c1ccccc1
HOP-18 NSCLC
  TGI: > 100 µM
SNB-78 CNS
  TGI: 89.7 µM
XF 498 CNS
  TGI: 23.4 µM

## Cc1occc1C(=S)Nc1ccc(Cl)c(/C=N/OC(C)C)c1
MDA-MB-231 breast
  TGI: 32.6 µM
MDA-MB-435
  TGI: 31 µM
MDA-N
  TGI: 45 µM

## CCOC(=O)NC(=O)c1cn(CCCOC(=O)CCCCCCCCCCC(=O)OCCCn2cc(C(=O)NC(=O)OCC)c(=O)n(C)c2=O)c(=O)n(C)c1=O
HOP-18 NSCLC
  TGI: > 100 µM
LXFL 529 NSCLC
  TGI: > 100 µM
SNB-78 CNS
  TGI: > 100 µM
XF 498 CNS
  TGI: > 100 µM

## O=C1c2ccccc2C2(O)NC(=S)N(c3ccccc3)C12O (configuration not stated)
HOP-18 NSCLC
  TGI: > 100 µM
KM20L2 colon
  TGI: > 100 µM
LXFL 529 NSCLC
  TGI: > 100 µM
SNB-78 CNS
  TGI: > 100 µM
XF 498 CNS
  TGI: > 100 µM
